Tests used:
[1] = tested on: lower urinary tract obstruction model of rats; assay: Test Example 2: urination function in male rat lower urinary tract obstruction model (cystometry under no anesthesia); type: in vivo; conditions: Group A: 10 mg/kg oral once a day, 14 days, in comparison with Group C (dutasteride 0.5 mg/kg), FIG. 7, 8
From the text: A lower urinary tract obstruction model of rats was used as a test system. A test substance was orally administered to the lower urinary tract obstruction model repeatedly over 14 days to examine the action on the urination function in the lower urinary tract obstruction model. The lower urinary tract obstruction model is not a benign prostatic hyperplasia model with enlarged prostate.
More specifically, the rats (male, Crl:CD(SD), 8-week-old; Charles River Laboratories Japan, Inc.) were operated to form lower urinary tract obstruction and repeatedly received oral administration of the test substance at a frequency of once a day over 14 days. After the completion of the administration, each rat was subjected to bladder catheterization under anesthesia and cystometry under no anesthesia and was evaluated for the residual urine volume and the urination efficiency.
The test substances and the dosage in the test system (male rats with lower urinary tract obstruction) are as follows. • Solvent group (control group): 0.5 v/v % Polysorbate 80 solution, 10 mL/kg (n=8) • Group A: Compound A, 10 mg/kg (n=12) • Group C: Compound C (dutasteride), 0.5 mg/kg (n=11) • Dutasteride is a 5a reductase inhibitor.

bladder specimen = assay: Test Example 3: isometric contraction test of bladder specimen from high-week-old male rats after repeated oral dosing; type: in vivo, rat; conditions: Group A: 10 mg/kg oral once a day, 2 weeks; compared with Group C (dutasteride 0.3 mg/kg); FIG. 9, 10
From the text: High-week-old male rats (22-week-old; Charles River Laboratories Japan, Inc.) were examined and evaluated for the relationship between the test substances and the bladder and urethra contraction reaction. Since the rats are high-week-old, the rats are a model in which the prostate is predicted to be enlarged.
A test substance was orally administered to the high-week-old male rats repeatedly at a frequency of once a day over two (2) weeks, and then, from each rat, a bladder specimen was extracted. The bladder specimen was suspended at a resting tension of about 9.8 mN in a constant-temperature Magnus tube (37° C.) filled with a physiological salt solution aerated with 95% O2-5% CO2 gas and was subjected to an isometric contraction test by applying a square-wave electrical field stimulation (EFS, Amplitude; 0.3 ms, Frequency; 1, 2, 5, 10, 20 Hz, Duration; 5 s); or Carbachol (CCH, 100 nmol/L to 100 μmol/L) and KCl (40, 80 mmol/L).
Solvent group (control group): 0.5 v/v % Polysorbate 80 solution, 10 mL/kg (n=6) • Group A: Compound A, 10 mg/kg (n=6) • Group C: Compound C (dutasteride), 0.3 mg/kg (n=6)

[2] = tested on: model of a urination disorder associated with streptozocin-induced diabetes; assay: Test Example 6: urination disorder model associated with streptozocin-induced diabetes, compound A versus dutasteride; type: in vivo, rat
Experimental: As described below, a model of a urination disorder associated with streptozocin-induced diabetes was prepared as a urination disorder model in accordance with Test Example 4 to evaluate the effects of the compound A and the compound C on a urination disorder. This model has no benign prostatic hyperplasia and is a model of a urination disorder associated with neuropathy and smooth muscle contraction disorder.
The body weights of Rats (male, Crl:CD(SD), 5-week-old; Charles River Laboratories Japan, Inc.) were measured. On the basis of the body weight, the rats were grouped or divided into two (2) groups. The day after the rats were grouped, a fist group received intraperitoneal administration of a citrate buffer (pH 4.5) (10 mL/kg) having a concentration of 0.1 mmol/L, and a second group received intraperitoneal administration of streptozocin (STZ; Sigma-Aldrich) (50 mg/kg). Streptozocin (STZ) was administered in the form of a solution of streptozocin having a concentration of 5 mg/mL in the citrate buffer.
About one (1) week after streptozocin (STZ) was administered, the body weight and the fasting blood glucose were measured. In the streptozocin (STZ) administration group (the second group), individuals having a fasting blood glucose level of not less than 300 mg/dL were used as animals with induced diabetes. These animals with induced diabetes are a model having no abnormality of the prostate (having no benign prostatic hyperplasia). On the basis of the body weight and the fasting blood glucose level, the animals (models) with induced diabetes were grouped or divided into three (3) groups by randomized, multivariable block allocation.
To the three model groups with induced diabetes, a 0.5 v/v % Polysorbate 80 solution (0.5% P) (10 mL/kg), the compound A (3 mg/kg), and the compound C (dutasteride) (0.3 mg/kg) were orally administered, respectively, wherein the administration schedule in all groups was a frequency of once a day, only on weekdays, over four (4) weeks. Moreover, to the above-mentioned first group, a 0.5 v/v % Polysorbate 80 solution (0.5% P) (10 mL/kg) was orally administered in the same administration schedule (normal group). On the last day of administration, a cannula was inserted into and secured to the dome of the bladder under isoflurane anesthesia, and cystometry (Cystometogram, CMG) was conducted in the order of under awake condition and under urethane anesthesia to measure the intravesical pressure, the voided volume, and the residual urine volume. After the completion of the measurement, the blood was collected under deep isoflurane anesthesia, and then the prostate (ventral prostate, dorsolateral prostate) was extracted and each was weighed. Moreover, the blood glucose level in the collected blood was measured.
The test substances and the dosage in the test system (rats having the urination disorder associated with diabetes) are as follows. • Normal group: citrate buffer 10 mL/kg (intraperitoneal administration), 0.5% P 10 mL/kg (oral administration) (n=10) • Solvent group (control group): STZ 50 mg/kg (intraperitoneal administration), 0.5% P 10 mL/kg (oral administration) (n=10) • Group A3: STZ 50 mg/kg (intraperitoneal administration), Compound A 3 mg/kg (oral administration) (n=10) • Group C0.3: STZ 50 mg/kg (intraperitoneal administration), Compound C (dutasteride) 0.3 mg/kg (oral administration) (n=10)
Urination parameter: In the same manner as in Test Example 4, the residual urine volume (mL) and the urination efficiency % were determined as urination parameters in each urination, and the average value of two measurements was taken as a measured value of each individual.
Prostate weight: In the same manner as in Test Example 4, the weight of the prostate (ventral prostate, dorsolateral prostate, and whole) was converted to a tissue weight per 100 g of the body weight. […]

[3] = Group A3: 3 mg/kg oral, 4 weeks, relative to solvent group

## CC(=O)O[C@]1(C(C)=O)C[C@@H](O)[C@H]2[C@@H]3C=C(Cl)C4=CC(=O)OC[C@]4(C)[C@H]3CC[C@@]21C [Compound A, 17α-acetoxy-6-chloro-15β-hydroxy-2-oxa-4,6-pregnadiene-3,20-dione]
[1]
  urination function (the residual urine volume, the urination efficiency): strong improvement action
Bladder specimen
  bladder contraction tension caused by square-wave electrical field stimulation or Carbachol and KCl: significantly strong or has a strong directionality
[2]; Group A3: 3 mg/kg oral, 4 weeks
  therapeutic effect on diabetes (blood glucose level): no therapeutic effect on diabetes
[2]; [3]
  Dorsolateral prostate (atrophy rate): (40.2%)
  Ventral prostate (atrophy rate): (40.0%)
  Whole prostate (atrophy rate): (40.1%)
[2]; Group A3: 3 mg/kg, cystometry under awake condition, vs solvent group (p<0.05), FIG. 19
  residual urine volume: significantly decreased
[2]; Group A3: 3 mg/kg, cystometry under awake condition, vs solvent group (p<0.05), FIG. 20
  urination efficiency: significantly improved
[2]; Group A3: 3 mg/kg, in comparison with the solvent group and Group C0.3, FIG. 21
  bladder contraction force on urination by nomogram analysis: strong bladder contraction force

From patent US12458650B2, “Urination disorder-improving agent” (ASKA Pharmaceutical Co., Ltd., priority 2019, dated 2025)
